# Experimental data taken from patent US20230366023A1, “METHODS AND COMPOSITIONS FOR BIOLUMINESCENCE-BASED SEQUENCING” (BGI Shenzhen Co., Ltd., priority 2020, published 2023).
# Entries after “also recorded” stand apart in the source; their conditions may differ.
# What was measured:
# Gluc [1] = experiment: Selective deactivation by DTT (FIG. 18B); assay type: biochemical, Gaussia princeps
# Experimental: (§1) Selective deactivation agents that are suitable for the invention include, but not limited to, Dithiothreitol (DTT), beta-mercaptoethylamine, tris-carboxyethylphosphine (TCEP). The suitable concentrations of the agent (e.g., DTT) for selectively deactivating the first luciferease may range from 0.001M to 2M, e.g., from 0.01M to 0.5M, from 0.05M to 1M, 0.07M to 0.5M, or about 0.1M.
# In each cycle a mixture of NLRTs were incubated with the DNA template to be sequenced in the presence of a DNA polymerase. These NLRTs include 7-deaza-7-biotin-linker-3′-azidomethyl-dATP, 5-biotin-linker-3′-azidomethyl-dTTP, 5-digoxin-linker-3′-azidomethyl-dTTP, 5-digoxin-linker-3′-azidomethyl-dCTP, and 3′-azidomethyl-dGTP. Streptavidin-conjugated Gluc (recognizing biotin-labeled nucleotides A and T) was added to the sequencing flow cell followed by adding substrate CTZ. Bioluminesnce signals from the cleavage of CTZ by the Gluc was collected. […] Subsequently, Nluc-conjugated anti-Digoxin antibody was added to the flow cell to bind the Digoxin-labeled nucleotides (T and C). No signals for G were detected as expected.
# Nluc [2] = target: T1, Nluc (Oplophorus gracilirostris, UniProt Q9GV45, A31E/A60N/A81I/F95D/I117V/K70R/L54V/L99Q/M102K/N193R/P142E/Q151K/Q38R/Q45L/V71I/Y165I); experiment: Selective deactivation by DTT (FIG. 18A); assay type: biochemical
# T1 construct: purchased Prolume Inc
# Source text: as §1
# Solubility of substrates = assay type: physicochemical
# Experimental: An optimal organic solvent as substrate stock buffer was needed to obtain good solubility and good stability. Different organic solvents and mixes were tested, such as ethanol, propylene glycol, methonal, DMSO, and mixes of these solvents at different ratios.
# [3] = On-board stability of substrates in reaction buffer (FIG. 5); assay type: physicochemical; conditions: room temperature 24 hours in reaction buffer, compared with fresh condition
# Experimental: The term “on-board stability” refers to the stability of […] in reaction buffer under the room temperature for 24 hours.
# To develop the substrate reaction buffer into a robust reagent kit for the bioluminescence-based sequencing platform, both on-board stability and long term shelf life have been evaluated. […] We evaluated the room temperature stability for 24 hours (referred as on-board stability) for both CTZ and f-CTZ in the reaction buffer formulation listed above.
# [4] = Long-term shelf life of substrates in reaction buffer (FIG. 6); assay type: physicochemical; conditions: 300 uM in reaction buffer, −20° C.
# Experimental: Long-term shelf life (long-term stability) was also evaluated for the substrate reaction buffer formulation. 300 uM substrate was diluted in the reaction buffer and stored at −20° C. One aliquot was thaw and tested against the fresh luciferase. Data at each time point was the relative signal intensity ratio compared to a fresh luciferase/substrate pair.
# Gluc [5] = experiment: Luciferase signal after incubation with SMCC linker or iodoacetamide (FIG. 10B); assay type: biochemical, Gaussia princeps
# Experimental: (§2) We investigated the detailed luciferase structures to find the reason for the signal drop. […] To confirm this hypothesis, lodoacetamide was used to incubate with both Gluc and Nluc. Lodoacetamide can bind covalently to the thiol group of cysteine so the protein cannot form disulfide bonds, as illustrated in FIG. 10A. […] This was the reason why there is signal loss after incubating the SMCC with Nluc/Gluc which leads to low signal intensity for the final antibody conjugates.
# Gluc [6] = experiment: Signal and thermostability after Traut's modification (FIG. 11C, 11D); assay type: biochemical, Gaussia princeps
# Experimental: (§3) Other conjugation methods were also attempted to avoid the side reactions from SMCC. […] After purification of each reaction, the luciferase after Traut's treatment and the antibody after SMCC treatment were mixed together to react through the —SH group on the luciferase and maleimide on the SMCC group on antibody.
# Beside signal evaluation, stability study had also been investigated. […] For Nluc, Traut's modification (1:1 ratio) helps to improve stability and signal for about 30% at 50° C.
# Nluc [7] = target: T1, Nluc; experiment: as above; assay type: biochemical
# Source text: as §3
# Beside signal evaluation, stability study had also been investigated. […]
# Nluc mutant = target: T2, Nluc mutant (Oplophorus gracilirostris, UniProt Q9GV45, A31E/A60N/A81I/F95D/I117V/K70R/L54V/L99Q/M102K/N193R/P142E/Q151K/Q38R/Q45L/V71I/Y165I); experiment: Screening of CTZ analogs as substrate (FIG. 4); assay type: biochemical; conditions: with Nluc mutant
# T2 construct: purchased Prolume Inc
# Nluc [8] = target: T1, Nluc; experiment: Luciferase signal after incubation with SMCC linker or iodoacetamide (FIG. 10B); assay type: biochemical; conditions: Nluc:iodoacetamide 1:10 ratio at RT for 30 min
# Experimental: as §2
# [9] = relative; each luciferase with the substrate listed in Table 1
# Source text: Preferably the luciferase is relatively small (e.g., less than 30 KDa) so that they can be readily engineered, e.g., be coupled to or fused to an affinity reagent disclosed herein. […] Other non-limiting examples of luciferases that can be used include Nanoluc (Promega) and NanoKaz (NanoLight Technology), which also comprise a sequence of SEQ ID NO: 2.
# [10] = Stability of luciferases in cells (Table 1); assay type: cell-based
# [11] = Side-by-side signal intensity comparison of commercial luciferases (FIG. 2); assay type: biochemical; conditions: integrated signal intensity from the first 10 sec
# Source text: However, it was still multiple fold intensity higher than the rest of the counterparts. […] The integrated signal intensity from the first 10 sec was obtained from each luciferase/substrate pair to have the comparison.
# [12] = Cross-substrate reactivity of Nluc with the Gluc substrate (FIG. 3); assay type: biochemical
# Experimental: In some embodiments, the luciferase is incubated with the substrate for a sufficient amount of time to allow the development of the signal before detection. The step of signal development may last between 5 to 30 minutes, for example, about 10 minutes.
molecule,measurement,setting,value
"O[C@H](CS)[C@H](O)CS (racemic) [DTT, Dithiothreitol]",deactivation in sequencing flow cell,Gluc [1]; 100 mM DTT,deactivated Gluc
same,signal reduction after DTT treatment,Gluc [1]; Gluc,more than 95%
same,signal change after DTT treatment,Nluc [2],did not impair the activity; also recorded: no significant changes
"Oc1ccc(Cc2nc3c(Cc4ccccc4)nc(-c4ccc(O)cc4)cn3c2O)cc1 [CTZ, coeleterazine]",water solubility,Solubility of substrates,not water-soluble
same,on-board stability,[3],no significant difference; also recorded: not significantly different
same,long-term stability (relative signal intensity versus fresh luciferase/substrate pair),"[4]; Gluc/CTZ, 6 months",no significant signal drop
O=C(ON1C(=O)CCC1=O)C1CCC(CN2C(=O)C=CC2=O)CC1 (stereo not shown) [SMCC],signal drop after incubating with SMCC linker,Gluc [5]; Gluc,15%-30%
"N=C1CCCS1 [Traut's reagent, 2-iminothiolane]",signal increase after Traut's modification,Gluc [6]; 1:1 molar ratio gives the highest signal,60%
same,thermostability after Traut's modification,Gluc [6]; 50° C. or 70° C. for 1 hour,worse stability
same,thermostability after Traut's modification,"Nluc [7]; Nluc modified or unmodified, 70° C. for 1 hour",cannot survive 70 °C
same,signal increase after Traut's modification (in words),"Nluc [7]; Nluc, 1:1 molar ratio gives the highest signal",doubled
"O=c1c(Cc2ccc(F)cc2)nc2c(Cc3ccccc3)[nH]c(-c3ccc(O)cc3)cn1-2 [f-CTZ, fluorinated coeleterazine]",signal intensity among the different CTZ analog structures,Nluc mutant,optimal substrate; also recorded: highest signal intensity
same,water solubility,Solubility of substrates,not water-soluble
same,on-board stability,[3],no significant difference; also recorded: not significantly different
same,long-term stability (relative signal intensity versus fresh luciferase/substrate pair),"[4]; Nluc/f-CTZ, 4 months",no significant signal drop
"NC(=O)CI [lodoacetamide, Iodoacetamide]",signal lost after reacting with iodoacetamide,"Gluc [5]; Gluc:iodoacetamide 1:10 ratio at RT for 30 min, fraction of signal",2/3
same,signal lost after reacting with iodoacetamide,Nluc [8],lost all signal
"firefly: firefly luciferase, substrate D-Luciferin",Signal intensity,[9],1
same,Stability in cells,[10],0.00694 days
"Gaussia: Gaussia luciferase (GLuc), substrate Coelenterazine (protein) MKPTENNEDFNIVAVASNFATTDLDADRGKLPGKKLPLEVLKELEANARKAGCTRGCLICLSHIKCTPKMKKFIPGRCHTYEGDKESAQGGIGEAIVDIPEIPGFKDLEPLEQFIAQVDLCVDCTTGCLKGLANVQCSDLLKKWLPQRCATFASKIQGQVDKIKGAGGDHHHHHH",Signal intensity,[9],160
same,Stability in cells,[10],10.5 days
"Nluc: NanoZac luciferase polypeptide (SEQ ID NO: 2), Prolume Inc. (protein) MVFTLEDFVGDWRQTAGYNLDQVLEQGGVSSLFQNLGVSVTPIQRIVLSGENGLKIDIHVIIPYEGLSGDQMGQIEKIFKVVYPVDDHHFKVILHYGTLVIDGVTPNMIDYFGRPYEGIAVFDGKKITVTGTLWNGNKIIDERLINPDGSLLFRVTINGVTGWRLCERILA",signal compared to the Gluc mutant,[11],half
same,background signal when reacting with the Gluc substrate,[12]; Nluc with CTZ,about 10%
same,cross-substrate reactivity,"[12]; in words, FIG. 3",no significant cross-substrate reactivity
"Nanoluc: Nanoluc luciferase (Promega), substrate Furimazine (protein) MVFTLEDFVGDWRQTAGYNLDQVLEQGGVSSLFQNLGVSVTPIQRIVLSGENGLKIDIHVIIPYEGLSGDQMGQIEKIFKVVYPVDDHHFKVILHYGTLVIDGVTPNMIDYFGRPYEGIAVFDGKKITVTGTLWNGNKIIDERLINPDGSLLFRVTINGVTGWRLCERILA",Signal intensity,[9],80
same,Stability in cells,[10],7.7 days
"NanoKaz: NanoKaz luciferase (NanoLight Technology), substrate Coelenterazine-F (protein) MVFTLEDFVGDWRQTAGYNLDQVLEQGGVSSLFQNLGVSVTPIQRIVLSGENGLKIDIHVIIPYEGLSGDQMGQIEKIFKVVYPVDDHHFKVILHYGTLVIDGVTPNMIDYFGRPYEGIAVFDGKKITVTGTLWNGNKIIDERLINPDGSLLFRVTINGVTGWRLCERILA",Signal intensity,[9],150
same,Stability in cells,[10],7.7 days
